# Results from ChEMBL document CHEMBL4229532, “A series of camptothecin prodrugs exhibit HDAC inhibition activity” (Bioorg Med Chem, 2018).
# The source made the active and inactive calls. The calls are words filed in the database; no cut-off is given here.
# Assays:
# [1] = biological target: Histone deacetylase 1 (Homo sapiens, UniProt Q13547); assay: Inhibition of recombinant human HDAC1 expressed in baculovirus infected High5 insect cells using Ac-Lys-Tyr-Lys(epsilon-acetyl)-AMC as substrate after 24 hrs by fluorescence assay
# Chain of Histone deacetylase 1 (Q13547 whole entry): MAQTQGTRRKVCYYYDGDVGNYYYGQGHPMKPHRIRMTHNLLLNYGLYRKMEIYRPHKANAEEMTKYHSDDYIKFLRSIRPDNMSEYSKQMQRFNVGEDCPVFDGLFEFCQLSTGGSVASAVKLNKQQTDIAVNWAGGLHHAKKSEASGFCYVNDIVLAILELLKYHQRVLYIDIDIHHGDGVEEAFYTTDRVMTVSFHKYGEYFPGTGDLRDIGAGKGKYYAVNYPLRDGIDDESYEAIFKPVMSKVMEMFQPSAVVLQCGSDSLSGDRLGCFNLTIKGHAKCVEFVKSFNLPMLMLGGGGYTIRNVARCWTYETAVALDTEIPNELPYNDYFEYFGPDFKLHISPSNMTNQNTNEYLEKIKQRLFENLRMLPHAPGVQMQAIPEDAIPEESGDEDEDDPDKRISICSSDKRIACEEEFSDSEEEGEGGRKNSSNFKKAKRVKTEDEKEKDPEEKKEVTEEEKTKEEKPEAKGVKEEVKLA
# [2] = biological target: Histone deacetylase 3 (Homo sapiens, UniProt O15379); assay: Inhibition of recombinant human HDAC3 expressed in baculovirus infected High5 insect cells using Ac-Lys-Tyr-Lys(epsilon-acetyl)-AMC as substrate after 24 hrs by fluorescence assay
# Chain of Histone deacetylase 3 (O15379 whole entry): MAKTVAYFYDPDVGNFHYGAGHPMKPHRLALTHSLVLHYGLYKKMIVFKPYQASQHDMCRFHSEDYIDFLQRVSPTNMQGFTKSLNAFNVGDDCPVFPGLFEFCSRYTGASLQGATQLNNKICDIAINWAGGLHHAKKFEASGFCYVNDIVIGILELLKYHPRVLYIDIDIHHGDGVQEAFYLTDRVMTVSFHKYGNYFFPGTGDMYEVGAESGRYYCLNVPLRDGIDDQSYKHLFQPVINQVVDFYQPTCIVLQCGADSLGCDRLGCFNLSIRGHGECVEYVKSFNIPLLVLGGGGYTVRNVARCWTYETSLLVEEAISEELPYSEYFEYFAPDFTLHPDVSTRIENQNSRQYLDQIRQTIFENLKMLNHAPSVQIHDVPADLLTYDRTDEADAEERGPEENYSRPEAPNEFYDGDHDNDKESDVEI
# [3] = biological target: T1, Protein deacetylase HDAC6 (Homo sapiens, UniProt Q9UBN7); assay: Inhibition of recombinant human HDAC6 expressed in baculovirus infected High5 insect cells using Boc-Lys (epsilon-acetyl)-AMC as substrate after 3 hrs by fluorescence assay
# T1 sequence (Q9UBN7 whole entry): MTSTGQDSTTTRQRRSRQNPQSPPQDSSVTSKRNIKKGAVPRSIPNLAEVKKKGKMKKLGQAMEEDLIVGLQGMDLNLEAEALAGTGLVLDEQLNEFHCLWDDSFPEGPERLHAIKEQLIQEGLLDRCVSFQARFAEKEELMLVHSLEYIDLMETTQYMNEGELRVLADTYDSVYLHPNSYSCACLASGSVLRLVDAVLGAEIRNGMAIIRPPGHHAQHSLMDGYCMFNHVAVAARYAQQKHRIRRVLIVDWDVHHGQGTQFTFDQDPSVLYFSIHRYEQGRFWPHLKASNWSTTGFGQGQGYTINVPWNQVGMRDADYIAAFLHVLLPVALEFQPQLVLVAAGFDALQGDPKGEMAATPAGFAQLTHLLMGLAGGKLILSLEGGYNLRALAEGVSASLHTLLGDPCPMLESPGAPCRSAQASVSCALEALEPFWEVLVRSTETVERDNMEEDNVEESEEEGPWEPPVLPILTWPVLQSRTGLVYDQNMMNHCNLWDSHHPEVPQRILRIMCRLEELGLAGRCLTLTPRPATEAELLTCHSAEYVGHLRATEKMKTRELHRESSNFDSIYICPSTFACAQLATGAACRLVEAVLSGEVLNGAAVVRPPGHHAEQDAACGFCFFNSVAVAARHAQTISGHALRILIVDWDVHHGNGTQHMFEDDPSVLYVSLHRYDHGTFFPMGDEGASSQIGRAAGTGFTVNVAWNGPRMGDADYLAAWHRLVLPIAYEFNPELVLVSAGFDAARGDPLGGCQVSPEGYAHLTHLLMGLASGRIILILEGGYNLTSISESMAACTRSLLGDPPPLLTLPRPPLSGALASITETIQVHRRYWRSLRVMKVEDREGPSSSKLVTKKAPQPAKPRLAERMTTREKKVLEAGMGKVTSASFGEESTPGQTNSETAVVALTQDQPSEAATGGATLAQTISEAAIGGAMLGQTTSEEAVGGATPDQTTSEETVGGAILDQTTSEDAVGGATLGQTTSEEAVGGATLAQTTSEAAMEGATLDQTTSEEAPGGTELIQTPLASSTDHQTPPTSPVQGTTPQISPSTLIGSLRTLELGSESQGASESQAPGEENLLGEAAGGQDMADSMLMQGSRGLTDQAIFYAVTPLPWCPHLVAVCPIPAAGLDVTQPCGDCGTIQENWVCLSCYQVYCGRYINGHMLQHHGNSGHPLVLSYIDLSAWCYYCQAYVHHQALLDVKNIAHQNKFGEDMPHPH
# [4] = Stability of the compound in PBS at pH 7.4 at 50 uM by HPLC analysis; format: physicochemical; settings: buffer, pH 7.4, 50 µM
# [5] = Stability of the compound in PBS at pH 6 at 50 uM by HPLC analysis; format: physicochemical; settings: buffer, pH 6, 50 µM
# [6] = Stability of the compound in mouse plasma at 50 uM by HPLC analysis; format: ADME, cell-free
# [7] = Stability of the compound in human plasma at 50 uM by HPLC analysis; format: ADME, cell-free
# [8] = tested on: A549; assay: Antiproliferative activity against human A549 cells after 72 hrs by SRB assay; format: functional, cell-based; settings: A549, 72 h
# [9] = biological target: T2, Protein deacetylase HDAC6 (Homo sapiens) (UniProt Q9UBN7); assay: Inhibition of HDAC6 in human A549 cells assessed as increase in acetylated tubulin levels at 0.3 to 30 uM after 24 hrs by Western blot analysis; format: cell-based
# T2 sequence (whole entry): T1 sequence (Q9UBN7 whole entry)
# [10] = biological target: T2, Protein deacetylase HDAC6 (Homo sapiens); assay: Inhibition of HDAC6 in human HCT116 cells assessed as increase in acetylated tubulin levels at 0.3 to 30 uM after 24 hrs by Western blot analysis; format: cell-based
# [11] = tested on: HCT-116; assay: Antiproliferative activity against human HCT116 cells after 72 hrs by SRB assay; format: functional, cell-based; settings: HCT-116, 72 h
# [12] = biological target: T2, Protein deacetylase HDAC6 (Homo sapiens); assay: Inhibition of HDAC6 in human HCT116 cells assessed as increase in acetylated tubulin levels at 1 to 10 uM after 24 hrs by Western blot analysis; format: cell-based
# [13] = biological target: T2, Protein deacetylase HDAC6 (Homo sapiens); assay: Inhibition of HDAC6 in human A549 cells assessed as increase in acetylated tubulin levels at 1 to 10 uM after 24 hrs by Western blot analysis; format: cell-based
# [14] = Half life in PBS at pH 7.4 at 50 uM by HPLC analysis; format: physicochemical
# [15] = Half life in human plasma at 50 uM by HPLC analysis; format: ADME, cell-free
# [16] = Half life in mouse plasma at 50 uM by HPLC analysis; format: ADME, cell-free
# [17] = biological target: T2, Protein deacetylase HDAC6 (Homo sapiens); assay: Inhibition of HDAC6 in human A549 cells assessed as increase in acetylated tubulin levels at 0.03 to 3 uM after 24 hrs by Western blot analysis; format: cell-based
# [18] = biological target: T2, Protein deacetylase HDAC6 (Homo sapiens); assay: Inhibition of HDAC6 in human HCT116 cells assessed as increase in acetylated tubulin levels at 0.03 to 3 uM after 24 hrs by Western blot analysis; format: cell-based
Structure (SMILES),IC50 [1],IC50 [2],IC50 [3],IC50 [8],IC50 [11],other results
CCc1c2c(nc3ccc(OC(=O)N4CCN(C(=O)CCCCCCC(=O)NO)CC4)cc13)-c1cc3c(c(=O)n1C2)COC(=O)[C@]3(O)CC,5570 nM,9320 nM,12200 nM,7230 nM,6240 nM,Stability [4]: Stable; Stability [5]: Stable; Stability [6]: Unstable; Stability [7]: Stable; inhibition [9]: Active; inhibition [10]: Active
CCc1c2c(nc3ccc(O)cc13)-c1cc3c(c(=O)n1C2)COC(=O)[C@]3(O)CC [7-ETHYL-10-HYDROXYCAMPTOTHECIN],,,,1.62 to 7.33 nM,0.78 nM,
CCc1c2c(nc3ccc(OC(=O)N4CCC(N5CCCCC5)CC4)cc13)-c1cc3c(c(=O)n1C2)COC(=O)[C@]3(O)CC [IRINOTECAN],,,,1880 nM,1630 nM,
CCc1c2c(nc3ccc(O)cc13)-c1cc3c(c(=O)n1C2)COC(=O)[C@@]3(CC)OC(=O)CCCCCCCCC(=O)NO,710 nM,780 nM,320 nM,,,
CCc1c2c(nc3ccc(O)cc13)-c1cc3c(c(=O)n1C2)COC(=O)[C@@]3(CC)OC(=O)CCCCCCC(=O)O,27100 nM,37200 nM,6940 nM,129 nM,29 nM,inhibition [12]: Active; inhibition [13]: Active
CCc1c2c(nc3ccc(O)cc13)-c1cc3c(c(=O)n1C2)COC(=O)[C@@]3(CC)OC(=O)CNC(=O)CCCCCCC(=O)O,27700 nM,34900 nM,8660 nM,111 nM,23.2 nM,inhibition [12]: Active; inhibition [13]: Active
CCc1c2c(nc3ccc(OC(=O)N4CCN(C(=O)CCCCCCCCC(=O)NO)CC4)cc13)-c1cc3c(c(=O)n1C2)COC(=O)[C@]3(O)CC,30100 nM,25400 nM,7020 nM,,,
CCc1c2c(nc3ccc(OC(=O)N4CCN(C(=O)CCCCCCCCCCC(=O)NO)CC4)cc13)-c1cc3c(c(=O)n1C2)COC(=O)[C@]3(O)CC,11000 nM,27300 nM,3570 nM,,,
CCc1c2c(nc3ccc(O)cc13)-c1cc3c(c(=O)n1C2)COC(=O)[C@@]3(CC)OC(=O)CCCCCCCC(=O)NO,970 nM,990 nM,210 nM,,,
CCc1c2c(nc3ccc(O)cc13)-c1cc3c(c(=O)n1C2)COC(=O)[C@@]3(CC)OC(=O)CCCCCC(=O)NO,110 nM,100 nM,220 nM,245 nM,46.2 nM,inhibition [12]: inactive; inhibition [13]: inactive
CCc1c2c(nc3ccc(O)cc13)-c1cc3c(c(=O)n1C2)COC(=O)[C@@]3(CC)OC(=O)CCCCCCCCCC(=O)NO,6180 nM,5330 nM,610 nM,,,
CCc1c2c(nc3ccc(O)cc13)-c1cc3c(c(=O)n1C2)COC(=O)[C@@]3(CC)OC(=O)CNC(=O)CCCCCCC(=O)NO,1960 nM,1600 nM,860 nM,138 nM,30.5 nM,Stability [5]: Unstable; half-life at 50 µM [14]: 5 h; half-life at 50 µM [15]: 6 h; half-life at 50 µM [16]: 1 h; inhibition [12]: inactive; inhibition [13]: inactive
CCc1c2c(nc3ccc(OC(=O)N4CCN(C(=O)CCCCCCCCCC(=O)NO)CC4)cc13)-c1cc3c(c(=O)n1C2)COC(=O)[C@]3(O)CC,17400 nM,24600 nM,4700 nM,6730 nM,3220 nM,inhibition [17]: Active; inhibition [18]: Active
CCc1c2c(nc3ccc(O)cc13)-c1cc3c(c(=O)n1C2)COC(=O)[C@@]3(CC)OC(=O)CCCCCCC(=O)NO,90 nM,100 nM,250 nM,612 nM,88 nM,Stability [4]: Stable; Stability [5]: Stable; Stability [6]: Unstable; Stability [7]: Stable; inhibition [12]: inactive; inhibition [13]: inactive
CCc1c2c(nc3ccc(O)cc13)-c1cc3c(c(=O)n1C2)COC(=O)[C@@]3(CC)OC(=O)CCCCCCCCCCC(=O)NO,12600 nM,11800 nM,1070 nM,,,
CCc1c2c(nc3ccc(OC(=O)N4CCN(C(=O)CCCCCCCC(=O)NO)CC4)cc13)-c1cc3c(c(=O)n1C2)COC(=O)[C@]3(O)CC,19700 nM,18800 nM,9040 nM,,,
CCc1c2c(nc3ccc(OC(=O)N4CCN(C(=O)CCCCCC(=O)NO)CC4)cc13)-c1cc3c(c(=O)n1C2)COC(=O)[C@]3(O)CC,13600 nM,12000 nM,,,,
